Laboratory results published in article PMC12935787, “Clinical pharmacokinetics and pharmacometabolomics of Andrographis paniculata capsules: Bridging drug disposition and metabolic response to precision medicine” (Naunyn-Schmiedeberg's Archives of Pharmacology, 2025).
Like-named read-outs stand apart in the source and are kept apart here.

Key:
[1] = Clinical pharmacokinetics, plasma LC-MS/MS after single oral dose of AP capsules; format: in vivo, human (healthy volunteers); details: for concentration at 10 h / concentration at 12 h / concentration at 24 h / concentration at 0 h / concentration at 0.5 h / concentration at 1 h / concentration at 1.5 h / concentration at 2 h / concentration at 2.5 h / concentration at 3 h / concentration at 3.5 h / concentration at 4 h / concentration at 5 h / concentration at 6 h / concentration at 8 h: oral, 2000 mg; for concentration at 10 h / concentration at 12 h / concentration at 24 h / concentration at 0 h / concentration at 0.5 h / concentration at 1 h / concentration at 1.5 h / concentration at 2 h / concentration at 2.5 h / concentration at 3 h / concentration at 3.5 h / concentration at 4 h / concentration at 5 h / concentration at 6 h / concentration at 8 h / Mean concentration: 2000 mg AP capsules
Protocol: The protocol was published (Tee et al. [2022]).
Seven calibrators ranging from 1, 2, 5,10, 20, 50, and 100 ng mL^−1 were prepared. Frozen plasma was thawed, vortexed-mixes, and processed via protein precipitation: 50 µL plasma plus 100 µL 0.01% ammonia in methanol were vortexed (20 s), centrifuged (14800 rpm, 5 min) and […] supernatant was transferred to 2 mL vials with inserts. LC–MS/MS injection volume: 10 µL. The separation used a Phenomenex Gemini-NX C18 column (150 × 2.1 mm, 5 μm) with 0.01% ammonia (A) and acetonitrile/methanol (1:1, B) as mobile phases (0.30 mL min^-1). The gradient program: 40% B (0 min), linear increase to 95% B (3 min), hold to 5 min, sharp decrease to 10% B (5.01 min), hold to 7 min, return to 40% B (7.01 min), and re-equilibration to 10 min. Mass detection employed an LCMS-8060NX triple quadrupole with heated ESI in negative mode, monitoring specific MRM transitions: andrographolide (349.3 → 331.2/287.1), 14-deoxyandrographolide (331.2 → 108.0/301.1), and neoandrographolide (479.1 → 317.4/161.1).
Pharmacokinetic parameters were determined from plasma samples (5 subjects, 15 time points) analyzed via LC–MS/MS (Shimadzu 8060NX). […] Specific MRM transitions for andrographolide, 14-deoxyandrographolide, and neoandrographolide in plasma samples of subjects are illustrated in Figure S3. […] The dose-dependent concentration–time curves, pharmacokinetics profiles (Fig. 2a, b and c) and comprehensive individual PK data (Table S4) provide a foundation for developing personalized AP dosing regimens, supporting its precision medicine potential.

[2] = parameters: method as in Songvut et al. [2023b]; details: ref Songvut et al. [2023b], cited from earlier work
[3] = parameters: method as in Panossian et al. [2000]; details: single dose of AP equivalent to 20 mg andrographolide; ref Panossian et al. [2000]; cited from earlier work
[4] = human, plasma, 2000 mg AP capsules oral, fasting, n=5
[5] = AP dose corresponding to 60 mg of andrographolide

concentration at 10 h ([1]; human, plasma, S4, 10.00 h, read-out: Plasma concentration): 0 ng/mL | concentration at 12 h ([1]; human, plasma, S4, 12.00 h, read-out: Plasma concentration): 0 ng/mL | concentration at 24 h ([1]; human, plasma, S4, 24.00 h, read-out: Plasma concentration): 0 ng/mL | concentration at 0 h ([1]; human, plasma, S5, 0.00 h, read-out: Plasma concentration): 0 ng/mL | concentration at 0.5 h ([1]; human, plasma, S5, 0.50 h, read-out: Plasma concentration): 0 ng/mL | concentration at 1 h ([1]; human, plasma, S5, 1.00 h, read-out: Plasma concentration): 0 ng/mL | concentration at 1.5 h ([1]; human, plasma, S5, 1.50 h, read-out: Plasma concentration): 2.52 ng/mL | concentration at 2 h ([1]; human, plasma, S5, 2.00 h, read-out: Plasma concentration): 3.77 ng/mL | concentration at 2.5 h ([1]; human, plasma, S5, 2.50 h, read-out: Plasma concentration): 3.17 ng/mL | concentration at 3 h ([1]; human, plasma, S5, 3.00 h, read-out: Plasma concentration): 2.38 ng/mL | concentration at 3.5 h ([1]; human, plasma, S5, 3.50 h, read-out: Plasma concentration): 1.59 ng/mL | concentration at 4 h ([1]; human, plasma, S5, 4.00 h, read-out: Plasma concentration): 0.54 ng/mL | concentration at 5 h ([1]; human, plasma, S5, 5.00 h, read-out: Plasma concentration): 1.62 ng/mL | concentration at 6 h ([1]; human, plasma, S5, 6.00 h, read-out: Plasma concentration): 1.12 ng/mL | concentration at 8 h ([1]; human, plasma, S5, 8.00 h, read-out: Plasma concentration): 0 ng/mL | concentration at 10 h ([1]; human, plasma, S5, 10.00 h, read-out: Plasma concentration): 0 ng/mL | concentration at 12 h ([1]; human, plasma, S5, 12.00 h, read-out: Plasma concentration): 0 ng/mL | concentration at 24 h ([1]; human, plasma, S5, 24.00 h, read-out: Plasma concentration): 0 ng/mL | concentration at 0 h ([1]; human, plasma, mean n=5, 0.00 h, read-out: Mean concentration): 0 ng/mL | concentration at 0.5 h ([1]; human, plasma, mean n=5, 0.50 h, read-out: Mean concentration): 8.62 ng/mL | concentration at 1 h ([1]; human, plasma, mean n=5, 1.00 h, read-out: Mean concentration): 7.7 ng/mL | concentration at 1.5 h ([1]; human, plasma, mean n=5, 1.50 h, read-out: Mean concentration): 10.2 ng/mL | concentration at 2 h ([1]; human, plasma, mean n=5, 2.00 h, read-out: Mean concentration): 6.21 ng/mL | concentration at 2.5 h ([1]; human, plasma, mean n=5, 2.50 h, read-out: Mean concentration): 3.4 ng/mL | concentration at 3 h ([1]; human, plasma, mean n=5, 3.00 h, read-out: Mean concentration): 3.02 ng/mL | concentration at 3.5 h ([1]; human, plasma, mean n=5, 3.50 h, read-out: Mean concentration): 1.3 ng/mL | concentration at 4 h ([1]; human, plasma, mean n=5, 4.00 h, read-out: Mean concentration): 0.11 ng/mL | concentration at 5 h ([1]; human, plasma, mean n=5, 5.00 h, read-out: Mean concentration): 0.32 ng/mL | concentration at 6 h ([1]; human, plasma, mean n=5, 6.00 h, read-out: Mean concentration): 0.22 ng/mL | concentration at 8 h ([1]; human, plasma, mean n=5, 8.00 h, read-out: Mean concentration): 0 ng/mL | concentration at 10 h ([1]; human, plasma, mean n=5, 10.00 h, read-out: Mean concentration): 0 ng/mL | concentration at 12 h ([1]; human, plasma, mean n=5, 12.00 h, read-out: Mean concentration): 0 ng/mL | concentration at 24 h ([1]; human, plasma, mean n=5, 24.00 h, read-out: Mean concentration): 0 ng/mL | AUC(0-inf) [1, 4]: 20.9 ng·h/mL | AUC(0-t) [1, 4]: 20.7 ng·h/mL | Cmax [1, 4]: 10.2 ng/mL | Tmax [1, 4]: 1.5 h | half-life [1, 4]: 0.72 h | Mean concentration ([1]; mean n=5, 0.00 h): 0 ng/mL | Mean concentration ([1]; mean n=5, 0.50 h): 8.622 ng/mL | Mean concentration ([1]; mean n=5, 1.00 h): 7.6996 ng/mL | Mean concentration ([1]; mean n=5, 1.50 h): 10.145 ng/mL | Mean concentration ([1]; mean n=5, 2.00 h): 6.2104 ng/mL | Mean concentration ([1]; mean n=5, 2.50 h): 3.3999 ng/mL | Mean concentration ([1]; mean n=5, 3.00 h): 3.0233 ng/mL | Mean concentration ([1]; mean n=5, 3.50 h): 1.2987 ng/mL | Mean concentration ([1]; mean n=5, 4.00 h): 0.1073 ng/mL | Mean concentration ([1]; mean n=5, 5.00 h): 0.3249 ng/mL | Mean concentration ([1]; mean n=5, 6.00 h): 0.2247 ng/mL | Mean concentration ([1]; mean n=5, 8.00 h): 0 ng/mL | Mean concentration ([1]; mean n=5, 10.00 h): 0 ng/mL | Mean concentration ([1]; mean n=5, 12.00 h): 0 ng/mL | Mean concentration ([1]; mean n=5, 24.00 h): 0 ng/mL
Structure (SMILES): C=C1CC[C@@H]2[C@](C)(CO)[C@H](O)CC[C@@]2(C)[C@@H]1C/C=C1/C(=O)OC[C@H]1O [andrographolide]
Cmax, previously reported [2, 5]: 72.1 ± 28.7 ng/mL | Tmax, previously reported [2, 5]: 0.8 h | tolerance in human PK studies [2]: 180 to 360 mg/day | Tmax, previously reported [3]: 1.5 to 2 h
